According to patent US12458614B2, “Therapeutic agents for improved mobility and cognitive function and for treating neurodegenerative diseases and lysosomal storage disorders” (priority 2017, dated 2025):

Assays:
[1] = test system: Niemann-Pick A (NPA) patient fibroblasts; experiment: Lysosomal volume via LysoTracker; type: cell-based, human; conditions: 1 mM, 6 days
[2] = test system: Sandhoff disease model, Hexb−/− mouse; experiment: Step cycle time; type: in vivo; conditions: Sandhoff mice, 12 weeks of age
Description: This study made use of a mouse model of Sandhoff disease, the Hexb^−/− mouse, as descrbed in Jeyakumar et al. (Jeyakumar, M. et al. (1999) Proc. Natl. Acad. Sci. USA 96: 6388-6393). Step cycle is the length of time taken during locomotion by a limb from the time it leaves the ground until it leaves the ground on the next occasion. Step cycle time was assessed at 12 weeks of age in untreated and acetyl-leucine treated Sandhoff model mice. Acetyl-leucine treatment constituted 0.1 g/kg body weight acetyl-leucine from 3 weeks of age.

[3] = test system: patients with multiple system atrophy Parkinson type (MSA-P); experiment: Case studies, multiple system atrophy Parkinson type; type: in vivo, human; conditions: MSA-P Patient 3, after one month
Source text: Medication was stopped. […] The patient evaluated after one month on acetyl-DL-leucine. […] Episodes of mental confusion completely disappeared. The patient's cognitive structure seemed much clearer and straighter. […] The patient's spouse supported continuing the medication.

wild-type (Npc1+/+) mice [4] = experiment: Weight data; type: in vivo, mouse; conditions: 0.1 g/kg from weaning
Source text: (§1) Separate groups of Npc1^−/− and Npc1^+/+ mice were left untreated, as controls. Animals were weighed twice a week. Weights were averaged (mean) across all mice in each group and compared.

Npc1−/− mice [5] = experiment: Weight data; type: in vivo, mouse; conditions: 0.1 g/kg from weaning
Source text: as §1

[6] = test system: person with postural imbalance and gait disorder; experiment: Case study Example 24; type: in vivo, human
Description: The patient was treated with Tanganil® 500 mg in 3 separate doses throughout the day—1 g upon waking, 1 g prior to lunch and 1 g prior to the evening meal for one week, followed by 2 g upon waking, 1.5 g prior to lunch and 1.5 g prior to the evening meal.

[7] = test system: patients with Tay-Sachs disease; experiment: Case studies, Tay-Sachs disease (SARA, SCAFI, MoCA); type: in vivo, human
Source text: For example, to evaluate overall neurological status, mDRS, a four-domain scale (ambulation, manipulation, language and swallowing), may be applied. Cerebellar function may be evaluated using SARA, an eight-item clinical rating scale (gait, stance, sitting, speech, fine motor function and taxis; range 0-40, where 0 is the best neurological status and 40 the worst), and SCAFI, comprising the 8-m-Walking-Time (8MW; performed by having patients walking twice as quickly as possible from one line to another excluding turning), 9-Hole-Peg-Test (9HPT) and the number of “PATA” repetitions over 10 s. Subjective impairment and quality of life may be evaluated using the EQ-5D-5L questionnaire and VAS. To assess ocular motor function, 3-dimensional videooculography (EyeSeeCam) may be used to measure the peak velocity of saccades, gain of smooth pursuit, peak slow phase velocity of gaze-evoked nystagmus (gaze-holding function), peak slow phase velocity of optokinetic nystagmus, and gain of horizontal vestibulo-ocular reflex. To evaluate the cognitive state, WAIS-R or WISC-IV, and MoCA, assessing different cognitive domains, including attention and concentration, executive functions, memory, language, visuoconstructional skills, conceptual thinking, calculations, and orientation with a maximum of 30 points and a cut-off score of 26, may be used. The skilled person will know how to perform these and other such tests.
The day following this examination, the patient was started on therapy with acetyl-leucine, at a dose of 3 g per day for the first week, followed by a dose of 5 g per day for the second week onwards.
The day of the examination, the patient was started on therapy with acetyl-leucine at a dose of 3 g per day for the first week, followed by a dose of 5 g per day for the second week onwards.
The patient was started on therapy with acetyl-leucine at a dose of 1.5 g per day for the first week, followed by a dose of 3 g per day for the second week onwards.

[8] = test system: patients with progressive supranuclear palsy; experiment: Case studies, progressive supranuclear palsy; type: in vivo, human
[9] = test system: person with balance disorder/senile gait disorder; experiment: Case study Example 23; type: in vivo, human
wild-type (Npc1+/+) mice [10] = experiment: Motor function analysis (Open Field Activity Monitor); type: in vivo, mouse; conditions: nine weeks of age
Description: (§2) Separate groups of Npc1^−/− and Npc1^+/+ mice were left untreated, as controls. Motor function analysis was performed on mice at eight and nine weeks of age using an Open Field Activity Monitor according to manufacturer's instructions (Linton Instruments, Amlogger Software). Each mouse was placed in a plastic cage with bedding and analysed for five minutes. Rears were counted manually. Motor function parameters measured were: • 1. Centre Rearing: mice rearing on hind legs unsupported; • 2. Rearing: mice rearing on hind legs with and without the support of cage walls; • 3. Activity: regular movement of the animal including walks; • 4. Front to Back (FR) count: movement of the animal from front to back of the cage; • 5. Active Time: duration (s/min) of activeness regardless of movement; • 6. Mobile Time: duration (s/min) of mobility; • 7. Rearing Time: duration of any rearing. Results Coat Condition

Npc1−/− mice [11] = experiment: as above; type: in vivo, mouse; conditions: nine weeks of age
Description: as §2

[12] = test system: Tay-Sachs disease patient fibroblasts; experiment: Glycosphingolipid (GSL) levels via HPLC; type: cell-based, human; conditions: 1 mM for 6 days, p<0.05
[13] = test system: microtubule-associated protein 1A/1B-light chain 3-phosphatidylethanolamine conjugate (LC3-II); experiment: LC3-II levels relative to tubulin loading control; type: in vivo, mouse; conditions: NPC1−/− mice, 0.1 g/kg body weight daily from 3 weeks, sacrificed at 8 weeks
Description: The Niemann-Pick Disease Type C (NPC) mouse model shares a number of pathological features with Alzheimer's disease (AD) as described herein. […] Mice were sacrificed at 8 weeks of age. Levels of amyloid precursor protein C-terminal fragments (APP-CTFs) were evaluated relative to total amyloid precursor protein (APP) levels in the cerebellum for wild type, untreated wild type NPC1^−/− mice, and AL-treated wild type NPC1^−/− mice. Levels of microtubule-associated protein 1A/1B-light chain 3-phosphatidylethanolamine conjugate (LC3-II) were also evaluated relative to levels of tubulin loading control for wild type, untreated wild type NPC1^−/− mice, and AL-treated wild type NPC1^−/− mice.

For `CC(=O)NC(CC(C)C)C(=O)O` (racemic) [acetyl-DL-leucine], the “LysoTracker fluorescence vs untreated disease fibroblasts” value [1] was “statistically significant reduction in LysoTracker fluorescence toward control level”, the “Average step cycle time” value ([2]; p<0.001 vs untreated) was “significantly faster average step cycle times” and the “Hind step cycle time” value ([2]; p<0.01 vs untreated) was “significantly faster hind step cycle times”. For the same compound, the “Front step cycle time” value ([2]; p<0.05 vs untreated) was “significantly faster front step cycle times”, the “Cognitive function (reported by wife)” value [3] was “significant improvement of cognitive function” and the Gait function [3] was “no improvement of gait function”. The “Effect on weight gain” value (wild-type (Npc1+/+) mice [4]) was “no significant effect”, the “Delay of weight loss symptoms compared to the untreated group” value (Npc1−/− mice [5]) was “two” and the Tolerability ([6]; 3 g/day one week then 5 g/day) was “well tolerated”. For the same compound, the “Dizziness, imbalance, gait (feedback by spouse)” value ([6]; 22 days after beginning treatment) was “significant reduction of dizziness and imbalance, and significant improvement of gait”, the Overall symptoms ([7]; Tay-Sachs Patient 1) was “improvement in symptoms” and the Clinical re-examination ([7]; Tay-Sachs Patient 1, after four months) was “stable condition with slightly improved cognitive function but had deterioration of stance, gait and fine motor function”. For the same compound, the Clinical re-examination ([7]; Tay-Sachs Patient 1, after one month, 3 g then 5 g per day) was “improved fine motor skills and reduced hand tremor”, the Clinical re-examination ([7]; Tay-Sachs Patient 2, after one month, 3 g then 5 g per day) was “increased enunciation, improved postural stability, and enhanced cognitive function” and the Clinical re-examination ([7]; Tay-Sachs Patient 3, after one month, 1.5 g then 3 g per day) was “increased fine motor skills”. The “Symptoms after stopping medication” value ([8]; PSP Patient 2, about two months later) was “no deterioration of symptoms after stopping medication”, the “Symptoms after stopping medication” value ([8]; PSP Patient 3, about two months later) was “no deterioration of symptoms after stopping medication” and the Frequency of falls ([9]; Day 14) was “significant reduction in the frequency of falls”. For the same compound, the Hypokinetic-rigid syndrome ([9]; Day 14) was “No change of hypokinetic-rigid syndrome”, the Dizziness symptoms ([9]; Day 14, 3 then 5 gram per day) was “improvement of dizziness symptoms” and the Dizziness after suspension ([9]; two days after suspension of treatment) was “increase of dizziness symptoms”. For the same compound, the “Motor function properties vs untreated littermates” value (wild-type (Npc1+/+) mice [10]) was “no significant difference in motor function properties”, the “Motor function properties vs untreated littermates” value (Npc1−/− mice [11]) was “significantly improved motor function” and the GSL storage [12] was “decrease was statistically significant”. For the same compound, the “LC3-II levels relative to tubulin” value [13] was “lowering of LC3-II”.
